Test results as given in PubChem BioAssay AID463206 (Broad Institute, 2010).
Calls of active or inactive are those of the source.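 Rule for the calls: active = caspase luminescence falls with dose and the half-maximal concentration AC50 from the fitted curve is at or below a set limit; inconclusive = flat fit at 30 to 70% signal loss, or invalid fit; inactive = AC50 above the limit, or signal rises instead.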

Each molecule was assayed on INS-1E cytokine-induced caspase-3/7, Caspase-Glo luminescence, 48 h (assay: inhibitors of cytokine-induced caspase-3/7 activity, dose response, orthogonal assay for beta-cell apoptosis protection project, INS-1E rat cells, luminescence (AID 463206)).

| SMILES | AC50 |
| --- | --- |
| COc1ccc(C(CCNCc2ccc(OC(C)C)cc2)c2ccccc2OC)cc1 (centres undefined) | > 26 µM (inactive) |
| CCN(CC)CCCNC1=C(Cl)C(=O)c2ccccc2C1=O | > 26 µM (inactive) |
| COc1ccc2nc(/C(C#N)=C\c3ccc(Oc4ccc([N+](=O)[O-])cn4)cc3)[nH]c2c1 | > 26 µM (inactive) |
| Cc1cccc2cc(-c3ccccc3)c(-c3ccccc3)c[n+]12 | > 26 µM (inactive) |
| CN(C)c1cc[n+](CC(=O)c2ccc(-c3ccccc3)cc2)cc1 | > 26 µM (inactive) |
| Cc1ccc(C(=O)C[n+]2cc(-c3ccccc3)n3c2CCCCC3)cc1 | > 26 µM (inactive) |
| COc1ccccc1CNc1ncnc2sccc12 | > 26 µM (inactive) |
| NC(N)=N/N=C/c1cn(-c2ccccc2)nc1-c1cccs1 | > 26 µM (inactive) |
| CCOc1cc(C)c(S(=O)(=O)Nc2ccc3cn[nH]c3c2)cc1C | > 12 µM (inactive) |
| Cc1ccc(NC(=O)NCC2CCN(Cc3cccc(Cl)c3)CC2)cc1Cl | > 26 µM (inactive) |
| Brc1ccc(CN2CCN(Cc3c[nH]c4ccccc34)CC2)cc1 | > 26 µM (inactive) |
| Cc1nn(-c2nc3ccccc3[nH]2)c(=O)c2ccccc12 | > 26 µM (inactive) |
| CCN(CC(=O)Nc1ccc(NC(C)=O)cc1)C(=O)CCCOc1ccc(C(C)(C)C)cc1 | > 26 µM (inactive) |
| Cc1ccc2ccc3cccnc3c2n1 | > 26 µM (inactive) |
| COc1ccc(C2/C=C\CN(C(=O)Nc3ccc(C(F)(F)F)cc3)CC(=O)N2Cc2ccc(F)cc2)cc1 (centres undefined) | > 26 µM (inactive) |
| O=S1(=O)C=C(Sc2nnc(-c3ccccc3)o2)c2ccccc21 | > 26 µM (inactive) |
| CCS(=O)(=O)c1ncc(Cl)c(C(=O)Nc2ccc(S(=O)(=O)N3CCC(C)CC3)cc2)n1 | > 26 µM (inactive) |
| C=C1C(=O)O[C@@H]2C[C@@H](C)[C@@H]3C=CC(=O)[C@@]3(C)[C@@H](OC(C)=O)[C@H]12 | > 26 µM (inactive) |
| CCOc1cc(S(=O)(=O)NCc2ccncc2)ccc1Cl | > 26 µM (inactive) |
| CN(/N=C/c1cc(Br)cc(Br)c1O)c1cccc(C(F)(F)F)n1 | > 12 µM (inactive) |
| O=C(Cc1cccs1)N/N=C\c1ccc([N+](=O)[O-])s1 | > 26 µM (inactive) |
| NC1=NC[C@H](Cc2ccc(O)cc2)N1CCCCC1CCCCC1 | > 26 µM (inactive) |
| CCCCn1cnc2c(c(-c3ccccc3)c(-c3ccccc3)n2Cc2ccco2)c1=N | > 26 µM (inactive) |
| CCOC(=O)C1CCN(Cc2ccc(O)c3ncccc23)CC1 | > 26 µM (inactive) |

| SMILES | AC50 |
| --- | --- |
| CCOC(=O)c1cccc(-[n+]2c(-c3ccccc3)cc(-c3ccccc3)cc2-c2ccccc2)c1 | > 26 µM (inactive) |
| COc1ccc(/C=C2\CN(Cc3ccccc3)C/C(=C\c3ccc(OC)c(O)c3)C2=O)cc1O | > 26 µM (inactive) |
| CN(C)S(=O)(=O)c1cccc(N=C2NN=C(c3ccccc3)CS2)c1 | > 26 µM (inactive) |
| O=C(Nc1nc(NC(=O)c2ccco2)n(-c2ccccc2)n1)c1ccccc1 | > 26 µM (inactive) |
| CN(C)CCOc1ccc(-c2c(-c3ccccc3)sc3ccccc23)cc1 | > 26 µM (inactive) |
| N=c1c2c(-c3ccccc3)c(-c3ccccc3)n(Cc3ccco3)c2ncn1CCCN1CCOCC1 | 16.7 µM |
| Fc1ccc(-c2cc(-c3nnc4n3CCCCC4)c3ccccc3n2)cc1 | > 26 µM (inactive) |
| Cc1ccccc1Cn1ccc(=NCc2ccccc2)cc1 | > 26 µM (inactive) |
| N#C/C(N=Nc1ccccc1O)=N\Nc1ccccc1O | > 26 µM (inactive) |
| CC(C)(C)c1cc[n+](C2=C([O-])c3ccccc3C(=O)/C2=N\S(=O)(=O)c2cccs2)cc1 | > 26 µM (inactive) |
| COc1cccc(/C=N/Nc2ncc(C(F)(F)F)cc2Cl)c1O | > 26 µM (inactive) |
| COc1ccc(NC(=O)c2c(Nc3ccccc3)sc(C(=O)c3ccc(F)cc3)c2N)cc1 | > 26 µM (inactive) |
| CC(C)Oc1ccc(C(CCN)C2CCCCC2)cc1 (centres undefined) | > 26 µM (inactive) |
| Cc1ccc(OCCN2CCN(c3ncnc4sc(C)c(C)c34)CC2)cc1 | > 26 µM (inactive) |
| COC(=O)[C@H](Cc1ccccc1)N(Cc1ccccc1)S(=O)(=O)N(Cc1ccccc1)[C@@H](Cc1ccccc1)C(=O)OC | > 26 µM (inactive) |
| O=C(NCC1COc2ccccc2O1)c1cccc(S(=O)(=O)NCc2ccccc2)c1 (centres undefined) | > 12 µM (inactive) |
| CCc1ccc(S(=O)(=O)Nc2ccc(O)c3ccccc23)cc1 | > 26 µM (inactive) |
| Cc1ccc(-c2csc(N3CCC(NS(=O)(=O)c4ccc5c(c4)OCCO5)CC3)n2)cc1 | > 26 µM (inactive) |
| CC(C)(C)n1nnnc1C(c1ccc(F)cc1)N(Cc1ccc(F)cc1)Cc1ccco1 (centres undefined) | > 26 µM (inactive) |
| Cc1cc(NC2CCCCC2)nc(NCc2ccccc2)n1 | > 26 µM (inactive) |
| Cc1ccc(C)c(S(=O)(=O)N2CCN(c3ncnc4sccc34)CC2)c1 | > 26 µM (inactive) |
| COc1ccc(C(=O)N/N=C(\c2ccccc2)c2ccccn2)cc1 | > 26 µM (inactive) |
| C=C(C)C(=O)O[C@H]1C/C(C)=C\C(=O)/C=C(\C)[C@H](O)[C@@H]2OC(=O)C(=C)[C@@H]21 | 3 µM |
| O=S(=O)(c1cc(F)ccc1F)N1CCN(c2ncnc3ccccc23)CC1 | > 26 µM (inactive) |

| SMILES | AC50 |
| --- | --- |
| COc1cc(NC(=O)COc2cc(O)c3c(c2)OC(C)(C)CC3=O)cc(OC)c1OC | > 26 µM (inactive) |
| CC(CNC(=O)c1ccc(OC2CCN(Cc3ccccn3)CC2)cc1)Oc1cccnc1 (centres undefined) | > 26 µM (inactive) |
| Nc1c(C(=O)Nc2ccc3c(c2)OCCO3)nnn1Cc1ccccc1Cl | > 26 µM (inactive) |
| CCOC(=O)C(C)/C(C)=N/NC(=O)c1cc2ccccc2cc1O (centres undefined) | > 26 µM (inactive) |
| COc1ccc(-c2cn(Cc3ccc(C(=O)c4ccccc4)cc3)nn2)cc1 | > 26 µM (inactive) |
| Cc1ccc(NC(=O)Cn2c(=O)oc3cc(S(=O)(=O)N4CCC(C)CC4)ccc32)cc1C | > 26 µM (inactive) |
| N#CC(C#N)=C(Nc1ccc(F)cc1)SCc1cccc(F)c1 | > 26 µM (inactive) |
| COc1ccc(C)cc1Nc1n[n+](-c2ccccc2)c(-c2c(Cl)cccc2Cl)s1 | > 26 µM (inactive) |
| CCCCCN=Cc1c(C)[nH]n(-c2nc3ccccc3s2)c1=O | > 26 µM (inactive) |
| O=[N+]([O-])c1ccccc1-c1cc(-c2ccccc2)cc(-c2ccccc2)[n+]1Cc1ccccc1Cl | > 26 µM (inactive) |
| O=C(c1ccccc1)c1c2c(cc3sc4ccccc4[n+]13)-c1cccc3cccc-2c13 | > 26 µM (inactive) |
| CCn1c(=NC(=O)CCS(=O)(=O)c2ccccc2)sc2cccc(OC)c21 | > 12 µM (inactive) |
| C/C(=N\NC(=O)c1cc(C2CC2)nc2ccccc12)c1ccc(O)cc1O | > 26 µM (inactive) |
| O=S(=O)(NCC1CCCO1)c1ccc(-c2ccc(S(=O)(=O)NCC3CCCO3)cc2)cc1 (centres undefined) | > 26 µM (inactive) |
| Cc1ccccc1Nc1c(-c2ccccn2)nc2c(C)cccn12 | > 26 µM (inactive) |
| On1onc2c3cc(-c4ccccc4)nc3ccc21 | > 26 µM (inactive) |
| Cc1ccc(C)c(N2CCN(C(=O)CCCOc3cc(=O)n(C)c4ccccc34)CC2)c1 | > 12 µM (inactive) |
| CC1CCC(C(C)C)C(OC(=O)Cn2c(COc3ccccc3)[n+](C)c3ccccc32)C1 (centres undefined) | > 26 µM (inactive) |
| CC1CC(=O)N(c2ccc(Br)cc2)C(=O)C1 | > 26 µM (inactive) |
| COc1ccc2c(C(=O)NCc3ccc4c(c3)OCO4)c(-c3ccc(S(C)(=O)=O)cc3)sc2c1 | > 26 µM (inactive) |
| Cc1cc(C)c2nc(NNC(=O)c3ccc(S(=O)(=O)N4CCc5ccccc5C4)cc3)sc2c1 | > 26 µM (inactive) |
| CCCCCCCCCCOC(=O)Cn1c(COc2cccc(C)c2)[n+](C)c2ccccc21 | > 26 µM (inactive) |
| CC(=O)NC(c1ccccc1)c1cc(Cl)c2cccnc2c1O (centres undefined) | > 26 µM (inactive) |
| COc1ccc(/C=C/c2nc3ccccc3n2C)cc1 | > 26 µM (inactive) |

| SMILES | AC50 |
| --- | --- |
| Cc1cc(C)n(-c2nc(Nc3ccccc3C(F)(F)F)nc(-n3nc(C)cc3C)n2)n1 | > 26 µM (inactive) |
| O=c1c2c3c(sc2n(CCN2CCCCC2)c(=O)n1Cc1ccco1)CCCCC3 | 25.4 µM |
| COc1cccc(CN(C)C(=O)c2cc(COc3ccc4ncccc4c3)on2)c1 | > 26 µM (inactive) |
| Cc1cc(C)n2nc(SCc3nnc(SCc4ccccc4C)s3)nc2n1 | > 26 µM (inactive) |
| CCCC(=O)NC(c1ccc(Cl)cc1)c1ccc2cccnc2c1O (centres undefined) | > 26 µM (inactive) |
| CCOC(=O)c1cnc(-n2nc(C)cc2C)nc1Nc1ccc(N(C)C)cc1 | > 26 µM (inactive) |
| O=S(=O)(c1ccc2nc(Nc3ccccc3)ccc2c1)N1CCCCC1 | > 26 µM (inactive) |
| CCc1nc(N2CCN(C(C)=O)CC2)c2c3c(sc2n1)CC(C(C)(C)C)CC3 (centres undefined) | > 26 µM (inactive) |
| CC1=NN(c2nc3ccccc3[nH]2)C(=O)C1Cc1ccccc1 (centres undefined) | > 26 µM (inactive) |
| CCCCCCSc1cccc(-c2nc3ccccn3c2NCc2ccccc2)c1 | > 26 µM (inactive) |
| CCN(CC)CCNC(=O)c1ccc2c(c1NCCO)C(=O)c1ccccc1C2=O | > 26 µM (inactive) |
| CC(=O)NC(c1cccc([N+](=O)[O-])c1)c1ccc2cccnc2c1O (centres undefined) | > 26 µM (inactive) |
| Cc1ccc(C(=O)C[n+]2cc(-c3ccc(C)cc3)n3c2CCCCC3)cc1 | > 26 µM (inactive) |
| COCCn1c(SCC(=O)/C=C2\N(C)c3ccccc3C2(C)C)nnc1-c1ccncc1 | > 26 µM (inactive) |
| COc1ccc(N/N=C(/N=Nc2nc(C)cc(=O)[nH]2)c2ccccc2)cc1 | > 26 µM (inactive) |
| O=C(Nc1nc2c(F)cc(F)cc2s1)c1ccccn1 | > 26 µM (inactive) |
| Cc1cc(/C=N/n2c(COc3ccccc3C)nc3ccccc3c2=O)c(O)c([N+](=O)[O-])c1 | > 26 µM (inactive) |
| COc1ccccc1N1C(C)=CC(=C(C#N)c2nc3ccccc3s2)C=C1C | > 26 µM (inactive) |
| COc1ccc(C(C(=O)NC2CCCCC2)N(C(=O)CCl)c2cccc(Cl)c2)cc1 (centres undefined) | > 26 µM (inactive) |
| CCOC(=O)c1cnc(-n2nc(C)cc2C)nc1NNc1nc(-c2ccccc2)cc(-c2ccccc2)n1 | > 26 µM (inactive) |
| Cc1ccc(C(=O)NC2CCCc3c2cnn3-c2ccc(F)cc2F)cn1 (centres undefined) | > 26 µM (inactive) |
| COc1ccc(Cn2c(SCc3ccc(C)cc3)nc3cc(OC)c(OC)cc3c2=N)cc1Cl | > 26 µM (inactive) |
